Reference: PubChem BioAssay (NCI)
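Briefly, cells in 96-well plates were exposed to five compound concentrations for 48 h, and endpoints were estimated by linear interpolation. Definition used: TGI = concentration required for complete inhibition of growth.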

How the values were obtained:
Assay in all cases: NCI anticancer screen, dose series, 48 h
[1] = tested on: 786-0 renal
[2] = tested on: A498 renal
[3] = tested on: A549 NSCLC
[4] = tested on: ACHN renal
[5] = tested on: BT-549 breast
[6] = tested on: CAKI-1 renal
[7] = tested on: COLO 205 colon
[8] = tested on: DU-145 prostate
[9] = tested on: EKVX NSCLC
[10] = tested on: HCC-2998 colon
[11] = tested on: HCT-116 colon
[12] = tested on: HCT-15 colon
[13] = tested on: HL-60(TB) leukemia
[14] = tested on: HOP-62 NSCLC
[15] = tested on: HOP-92 NSCLC
[16] = tested on: HS 578T breast
[17] = tested on: HT29 colon
[18] = tested on: IGROV1 ovarian
[19] = tested on: K-562 leukemia
[20] = tested on: KM12 colon
[21] = tested on: LOX IMVI melanoma
[22] = tested on: M14 melanoma
[23] = tested on: MALME-3M melanoma
[24] = tested on: MCF7 breast
[25] = tested on: MDA-MB-231 breast
[26] = tested on: MDA-MB-435
[27] = tested on: MDA-N
[28] = tested on: MOLT-4 leukemia
[29] = tested on: NCI-H226 lung
[30] = tested on: NCI-H23 lung
[31] = tested on: NCI-H460 lung
[32] = tested on: NCI-H522 lung
[33] = tested on: NCI/ADR-RES ovarian
[34] = tested on: OVCAR-3 ovarian
[35] = tested on: OVCAR-4 ovarian
[36] = tested on: OVCAR-5 ovarian
[37] = tested on: OVCAR-8 ovarian
[38] = tested on: PC-3 prostate
[39] = tested on: RPMI-8226 leukemia
[40] = tested on: RXF 393 renal
[41] = tested on: SF-268 CNS
[42] = tested on: SF-295 CNS
[43] = tested on: SF-539 CNS
[44] = tested on: SK-MEL-2 melanoma
[45] = tested on: SK-MEL-28 melanoma
[46] = tested on: SK-MEL-5 melanoma
[47] = tested on: SN12C renal
[48] = tested on: SNB-19 CNS
[49] = tested on: SR leukemia
[50] = tested on: SW-620 colon
[51] = tested on: TK-10 renal
[52] = tested on: U251 CNS
[53] = tested on: UACC-257 melanoma
[54] = tested on: UACC-62 melanoma
[55] = tested on: UO-31 renal
[56] = tested on: CCRF-CEM leukemia
[57] = tested on: SNB-75 CNS
[58] = tested on: SK-OV-3 ovarian

CC(C)OC(=O)C1=C2c3ncccc3C(=O)N2[C@@H](Cl)[C@H](Cl)[C@H]1Cl was tested, and the TGI [1] was over 100 µM, the TGI [2] was over 100 µM and the TGI [3] was over 100 µM. It also gave a TGI [4] of over 100 µM, a TGI [5] of over 100 µM and a TGI [6] of over 100 µM. The TGI [7] was over 100 µM, the TGI [8] was over 100 µM and the TGI [9] was over 100 µM. It also gave a TGI [10] of over 100 µM, a TGI [11] of over 100 µM and a TGI [12] of over 100 µM. The TGI [13] was over 100 µM, the TGI [14] was over 100 µM and the TGI [15] was over 100 µM. For the same compound, the TGI [16] was over 100 µM, the TGI [17] was over 100 µM and the TGI [18] was over 100 µM. For the same compound, the TGI [19] was over 100 µM, the TGI [20] was over 100 µM and the TGI [21] was over 100 µM. It also gave a TGI [22] of over 100 µM, a TGI [23] of over 100 µM and a TGI [24] of over 100 µM. The TGI [25] was over 100 µM, the TGI [26] was over 100 µM and the TGI [27] was over 100 µM. The TGI [28] was over 100 µM, the TGI [29] was over 100 µM and the TGI [30] was over 100 µM. The TGI [31] was over 100 µM, the TGI [32] was over 100 µM and the TGI [33] was over 100 µM. It also gave a TGI [34] of over 100 µM, a TGI [35] of over 100 µM and a TGI [36] of over 100 µM. For the same compound, the TGI [37] was over 100 µM, the TGI [38] was over 100 µM and the TGI [39] was over 100 µM. The TGI [40] was over 100 µM, the TGI [41] was over 100 µM and the TGI [42] was over 100 µM. The TGI [43] was over 100 µM, the TGI [44] was over 100 µM and the TGI [45] was over 100 µM. It also gave a TGI [46] of over 100 µM, a TGI [47] of 85.9 µM and a TGI [48] of over 100 µM. It also gave a TGI [49] of 93.8 µM, a TGI [50] of over 100 µM and a TGI [51] of over 100 µM. For the same compound, the TGI [52] was over 100 µM, the TGI [53] was over 100 µM and the TGI [54] was over 100 µM. For the same compound, the TGI [55] was over 100 µM.

Compound O=[N+]([O-])c1ccc2c(c1)Sc1ccccc1N2 has a TGI [1] of over 100 µM, a TGI [2] of over 100 µM and a TGI [3] of over 100 µM. It also gave a TGI [4] of over 100 µM, a TGI [5] of over 100 µM and a TGI [6] of over 100 µM. It also gave a TGI [56] of over 100 µM, a TGI [7] of over 100 µM and a TGI [8] of over 100 µM. It also gave a TGI [9] of over 100 µM, a TGI [10] of over 100 µM and a TGI [11] of over 100 µM. It also gave a TGI [12] of over 100 µM, a TGI [13] of over 100 µM and a TGI [14] of over 100 µM. The TGI [15] was over 100 µM, the TGI [16] was over 100 µM and the TGI [17] was over 100 µM. For the same compound, the TGI [18] was over 100 µM, the TGI [19] was over 100 µM and the TGI [20] was over 100 µM. It also gave a TGI [21] of over 100 µM, a TGI [23] of over 100 µM and a TGI [24] of over 100 µM. For the same compound, the TGI [25] was over 100 µM, the TGI [26] was over 100 µM and the TGI [27] was over 100 µM. For the same compound, the TGI [28] was over 100 µM, the TGI [29] was over 100 µM and the TGI [30] was over 100 µM. It also gave a TGI [31] of over 100 µM, a TGI [32] of over 100 µM and a TGI [33] of over 100 µM. It also gave a TGI [34] of over 100 µM, a TGI [35] of over 100 µM and a TGI [36] of over 100 µM. The TGI [37] was over 100 µM, the TGI [38] was over 100 µM and the TGI [39] was over 100 µM. For the same compound, the TGI [40] was over 100 µM, the TGI [41] was over 100 µM and the TGI [42] was over 100 µM. The TGI [43] was over 100 µM, the TGI [45] was over 100 µM and the TGI [46] was over 100 µM. It also gave a TGI [47] of over 100 µM, a TGI [48] of over 100 µM and a TGI [57] of 81.9 µM. The TGI [49] was over 100 µM, the TGI [50] was over 100 µM and the TGI [51] was over 100 µM. It also gave a TGI [52] of over 100 µM, a TGI [53] of over 100 µM and a TGI [55] of over 100 µM.

Work on CC(=O)Nc1ccc(S(=O)(=O)Nc2nc(-c3ccc(Cl)cc3)cc(N3N=C(c4ccc(Br)cc4)CC3c3ccccc3)n2)cc1 (stereo unspecified) yielded a TGI [1] of 44 µM, a TGI [3] of 31.5 µM and a TGI [4] of 58.3 µM. It also gave a TGI [5] of 34 µM, a TGI [56] of 90.3 µM and a TGI [7] of 27.1 µM. It also gave a TGI [8] of 62.4 µM, a TGI [9] of 26.5 µM and a TGI [11] of 42.7 µM. It also gave a TGI [12] of 31.9 µM, a TGI [13] of 38.1 µM and a TGI [14] of 35.3 µM. The TGI [15] was 32.4 µM, the TGI [16] was 31 µM and the TGI [17] was 28.3 µM. It also gave a TGI [18] of 24.1 µM, a TGI [19] of 23.3 µM and a TGI [20] of 40.4 µM. For the same compound, the TGI [21] was 29.5 µM, the TGI [22] was 43 µM and the TGI [23] was 40.7 µM. The TGI [24] was 16.6 µM, the TGI [25] was 28.6 µM and the TGI [26] was 19.6 µM. The TGI [27] was 29.8 µM, the TGI [28] was 39.5 µM and the TGI [29] was 31.8 µM. The TGI [30] was 41.2 µM, the TGI [31] was 44.3 µM and the TGI [32] was 31 µM. For the same compound, the TGI [33] was 34.4 µM, the TGI [34] was 8.46 µM and the TGI [35] was 30 µM. For the same compound, the TGI [36] was 27.8 µM, the TGI [37] was 33.3 µM and the TGI [38] was 36.1 µM. The TGI [39] was 37.5 µM, the TGI [40] was 39.7 µM and the TGI [42] was 31.5 µM. For the same compound, the TGI [43] was 31.1 µM, the TGI [44] was 30.5 µM and the TGI [45] was 35.1 µM. The TGI [58] was 29.9 µM, the TGI [47] was 32.3 µM and the TGI [48] was 33.8 µM. For the same compound, the TGI [49] was 56.6 µM, the TGI [50] was 52.5 µM and the TGI [51] was 33.5 µM. The TGI [52] was 32.1 µM, the TGI [53] was 37.3 µM and the TGI [54] was 25.2 µM. For the same compound, the TGI [55] was 30.5 µM.
